This note sets out measurements from ChEMBL document CHEMBL5107958, “Phosphoramidate Prodrugs Continue to Deliver, The Journey of Remdesivir (GS-5734) from RSV to SARS-CoV-2” (ACS Med Chem Lett, 2022).

Some results are limits rather than exact numbers.

In data set [1] the test system is SARS-CoV-2. The data set is described as follows: Potency index, ratio of EC50 of GS-441524 to EC50 of test compound for antiviral activity against SARS-CoV-2 infected in human Huh-7 cells assessed as reduction in virus-induced cytopathic effect at MOI of 0.0037 measured after 4 days by MTS assay. Format: functional, Severe acute respiratory syndrome coronavirus 2. As to conditions: time 4 day.

Data set [2] relates to Ebolavirus. The data set can be described thus: Antiviral activity against Ebola infected in human macrophages assessed as reduction in viral replication. It counts as functional, organism-based. To be noted: Orthoebolavirus, Macrophage.
Data set [3] has as its system Measles morbillivirus. The data set can be described thus: Antiviral activity against Measles Rec.rMVEZGFP(3) infected in human HeLa cells assessed as reduction in viral replication incubated for 48 to 144 hrs by fluorescence based assay. Format: functional, organism-based.
A short description of data set [4]: Prodrug conversion in ferret lung assessed as triphosphate metabolite formation at 10 mg/kg, iv measured after 24 hrs. Format: ADME, organism-based, Mustela putorius furo. As to conditions: in vivo.
Data set [5] in a line: Clearance in human at 2.5 mg/kg, iv. It counts as ADME, organism-based. To be noted: in vivo.
The test system of data set [6] is SARS-CoV-2. The data set can be described thus: Antiviral activity against SARS-CoV-2 infected in human Huh-7 cells assessed as reduction in virus-induced cytopathic effect at MOI of 0.0037 measured after 4 days by MTS assay. Format: functional, organism-based. To be noted: Severe acute respiratory syndrome coronavirus 2, Huh-7, 96 h. (Cytopathic effects are the visible damage that an infection or toxin causes in cultured cells.)

Data set [7] deals with SARS-CoV-2. The data set can be described thus: Antiviral activity against SARS-CoV-2 infected in human Caco-2 cells assessed as reduction in viral replication at MOI of 0.01 measured after 72 hrs by qRT-PCR analysis. Format: functional, organism-based. As to conditions: Severe acute respiratory syndrome coronavirus 2, Caco-2, 72 h. (Quantitative PCR measures a nucleic acid by following its amplification.)

Data set [8] in a line: Prodrug conversion in human assessed as AUC (0 to last) of parent nucleoside compound at 2.5 mg/kg, iv. Format: ADME, organism-based. Also noted: time 0 - last, dose 2.5 mg/kg, route iv. To be noted: in vivo.
Data set [9] has as its system Ebolavirus. The data set can be described thus: Potency index, ratio of EC50 of GS-441524 to EC50 of test compound for antiviral activity against Ebola infected in human HeLa cells assessed as reduction in viral replication. It counts as functional.
For data set [10], the system named is Middle East respiratory syndrome-related coronavirus. The data set is described as follows: Antiviral activity against MERS-CoV infected in human Calu-3 2B4 cells assessed as reduction in viral replication at MOI of 0.08 infected for 1 hr followed by virus removal and subsequent addition of medium containing compound measured after 48 hrs post-infection by nLUC assay. It counts as functional, organism-based.

For data set [11], the system named is Measles morbillivirus. The data set can be described thus: Potency index, ratio of EC50 of GS-441524 to EC50 of test compound for antiviral activity against Measles Rec.rMVEZGFP(3) infected in human HeLa cells assessed as reduction in viral replication incubated for 48 to 144 hrs by fluorescence based assay. As to conditions: time 48-144 hrs. It counts as functional.

In data set [12] the test system is SARS-CoV-2. The data set can be described thus: Antiviral activity against SARS-CoV-2 infected in HAE cells assessed as reduction in viral replication at MOI of 0.5 incubated for 2 hrs followed by virus removal measured after 48 hrs by plaque assay. Format: functional, organism-based. To be noted: Severe acute respiratory syndrome coronavirus 2, HAE.
For the next data set, the system named is Nipah virus. The data set can be described thus: Potency index, ratio of EC50 of GS-441524 to EC50 of test compound for antiviral activity against Nipah M1999 infected in human HeLa cells assessed as reduction in viral replication incubated for 48 to 144 hrs by reporter virus assay. It counts as functional, Henipavirus nipahense. To be noted: time 48-144 hrs.

In the next data set the test system is SARS-CoV. The data set is described as follows: Potency index, ratio of EC50 of GS-441524 to EC50 of test compound for antiviral activity against SARS-CoV infected in HAE cells assessed as reduction in viral replication at MOI of 0.5 preincubated for 3 hrs followed by virus removal measured after 48 hrs by Hoechst 33258 staining based assay. Format: functional, Severe acute respiratory syndrome-related coronavirus. As to conditions: time 51 hrs.

Data set [13] is described as follows: Prodrug conversion in human macrophages assessed as half life of triphosphate metabolite. It counts as ADME, cell-based. As to conditions: macrophage.

As for `CCC(CC)OC(=O)[C@H](C)N[P@](=O)(OC[C@H]1O[C@@](C#N)(c2ccc3c(N)ncnn23)[C@H](O)[C@@H]1O)Oc1ccccc1`, the Ratio is reported as more than 1000 with SARS-CoV-2 [1]; more than 143 in the data set with Ebolavirus [9]; 27 in the data set on Measles morbillivirus [11]; 32 in the data set with Nipah virus; 2.6 in the data set with SARS-CoV. In addition, the EC50 was 86 nM in the data set with Ebolavirus [2]; 37 nM in the data set with Measles morbillivirus [3]; less than 1 nM in the data set on SARS-CoV-2 [6]; 1 nM with SARS-CoV-2 [7]; 69 nM in [10]; 10 nM in the data set with SARS-CoV-2 [12]. Moreover, the Drug metabolism in data set [4] was determined as 1.28 nmol/g. In addition, the clearance in data set [5] was 14.3 mL/min/kg. For the same compound, the AUClast in data set [8] stood at 7.5 µM·h. Besides, the t1/2 in data set [13] came to 14 h.

For orientation: EC50 means the concentration giving half of the maximal effect. As usually defined, the clearance is the rate of elimination divided by the concentration.
